# Results taken from paper PMC9098178, “SAR of Novel 3-Arylisoquinolinones: meta-Substitution on the Aryl Ring Dramatically Enhances Antiproliferative Activity through Binding to Microtubules” (Journal of Medicinal Chemistry, 2022).
# pIC50: −log10 of the molar value.
# How the values were obtained:
# HepG2 = assay: SRB antiproliferative assay, HepG2; format: cell-based, human; conditions: Homo sapiens, HepG2, 96 h treatment, mean ± SEM, read-out: IC50 HepG2
# Experimental: In light of this substantial change in activity between the meta and para compounds, a more comprehensive analysis of the antiproliferative activity was performed for the meta-/para-3-arylisoquinolinone pairs 2 and 3, 4, and 5, as well as 6. A panel of breast (MDA-MB-231), liver (HepG2, SNU423), lung (A549), and colon (HCT116) cancer cell lines were treated with the five 3-arylisoquinolinone analogs for 96 h followed by the SRB assay. The dose–response curves (including those for MCF-7) are presented in Figure S22, and their relevant IC50 values are listed in Table 1. […] The differential activity between meta- and para-3-arylisoquinolinones was reproduced in the National Cancer Institute (NCI) one-dose screen using a panel of 59 cancer cell lines (Figure S23).
# All cell lines used in the study were human-derived and purchased from ATCC (Manassas, USA). Breast adenocarcinoma MCF-7 and MDA-MB-231 cell lines were cultured in DMEM. Hepatocellular carcinoma HepG2 and SNU423 cell lines were grown in MEME combined with 1% (v/v) nonessential amino acids and RPMI supplemented with 2 mM glutamine, respectively. Lung adenocarcinoma A549 and colorectal carcinoma HCT116 cells were grown in RPMI (+2 mM glutamine). All previous media were further supplemented with 10% heat-inactivated fetal bovine serum. The immortalized, normal liver THLE-3 cells were grown in BEGM (Lonza, Cat# CC-3170) onto precoated vessels according to ATCC’s instructions. Human umbilical vein endothelial cells (HUVECs) were cultured in EGM-2 (Lonza, Cat# CC-3162). All of the cells were maintained at 37 °C and 5% CO2 in a humidified incubator.
# Screening of the antiproliferative activity of 3-arylisoquinolinones was performed using the SRB assay as previously described.[56] Exponentially growing HepG2, SNU423, MDA-MB-231, MCF-7, A549, HCT116, THLE-3, and HUVECs were seeded in 96-well plates at densities of 3000, 2000, 1500, 2500, 1000, 1000, 4000, and 4000 cells/well, respectively. These densities were experimentally selected so that the DMSO-treated cells (control) were approximately 80–90% confluent at the assay’s endpoint, and their optical density (OD) values fell within the assay’s linear range. After overnight incubation, the cells were treated with a range of concentrations of the respective compounds for 96 h, 24 h followed by 72 h compound-free incubation or 24 h (for HUVECs only). After treatment, cell monolayers were fixed with 10% (w/v) trichloroacetic acid for 1 h at 4 °C, washed, and dried. Then, the cells were exposed to 0.4% (w/v) SRB dye (prepared in 1% (v/v) acetic acid; Botium, Cat# 80100) for 15 min followed by several 1% acetic acid washing and then drying. Finally, the cellular protein-bound SRB was thoroughly dissolved in 10 mM Tris base, and the OD values were read at 510 nm using a plate reader (μQuant Microplate Spectrophotometer, Biotek, U.K.) coupled with Gen5 software (BioTek, U.K.). Compound-induced changes in cell growth were inferred from changes in OD values. Cell growth was calculated using the following formula: cell growth (%) = (ODtest/ODcontrol) × 100.
# purified bovine tubulin = assay: Cell-free tubulin polymerization assay; format: biochemical
# Source text: Experimentally, the direct interaction of 4 with tubulin was investigated in a cell-free system using a tubulin polymerization assay. […] In control samples, α- and β-tubulin subunits were able to heterodimerize and assemble into microtubules in a time-dependent manner as indicated by increasing absorbance values over time. […] This indicates the incidence of fast polymerization associated with the formation of a denser microtubule mass. […] It is worth mentioning that microtubule dynamics can be potently altered by microtubule-stabilizing or -destabilizing compounds at doses 10- to 100-fold lower than those required for increasing or decreasing the microtubule polymer mass.[31]
# The cell-free tubulin polymerization experiment was performed using the Tubulin Polymerization Assay Kit according to the manufacturer’s instructions (Millipore, Cat# 17-10194). The light absorbed by microtubules, which were formed upon tubulin polymerization, is directly proportional to the polymer mass. […] Immediately, the plate was placed in a 37 °C-prewarmed plate reader (BMG LABTECH FLUOstar Omega, Germany) and the absorbance was measured at 1 min intervals for 60 min at a wavelength of 350 nm. The delta absorbance (ΔA) was calculated by subtracting the absorbance values of zero time from those of the subsequent time points and then plotted versus time.
Compound,pIC50 (HepG2),"suppression of tubulin polymerization at highest concentration (purified bovine tubulin; 20 μM, nocodazole 10 μM)","effect on tubulin polymerization (purified bovine tubulin; 5, 10, 20 μM, 37 °C, absorbance 350 nm)"
"O=c1[nH]c(-c2ccc(F)cc2)cc2cc(F)ccc12 [compound 5, 6-Fluoro-3-(4-fluorophenyl)isoquinolin-1(2H)-one]",< 4.30,,
"O=c1[nH]c(-c2cccc(F)c2)cc2cc(F)ccc12 [compound 4, 6-Fluoro-3-(3-fluorophenyl)isoquinolin-1(2H)-one]",,as effective in suppressing tubulin polymerization as the positive control (nocodazole),hindered tubulin polymerization in a concentration-dependent manner
